# Literature values in US20080044504A1, “Pomegranate Juice, Pomegranate Juice Powder and Process for Producing the Powder” (Marukin Bio, Inc., priority 2004, published 2008).
# Like-named read-outs stand apart in the source and are kept apart here.
# Tested on: estrogen receptor
binding to the estrogen receptor (binding rate of DES defined as 100%) [%],binding to the estrogen receptor [%],SMILES
0.04,,O=c1c(-c2ccc(O)cc2)coc2cc(O)ccc12 [daidzein]
,1.7,O=c1c(-c2ccc(O)cc2)coc2cc(O)cc(O)c12 [genistein]
